The assay addresses T1, human lung fibroblast collagenase (Homo sapiens, UniProt P03956).
T1 construct: purified from culture supernatants from the human lung fibroblast cell line, WI-38; endogenous in cells; host or cells: WI-38 (human lung fibroblast cell line), culture supernatant, purified
T1 sequence (P03956 100-469): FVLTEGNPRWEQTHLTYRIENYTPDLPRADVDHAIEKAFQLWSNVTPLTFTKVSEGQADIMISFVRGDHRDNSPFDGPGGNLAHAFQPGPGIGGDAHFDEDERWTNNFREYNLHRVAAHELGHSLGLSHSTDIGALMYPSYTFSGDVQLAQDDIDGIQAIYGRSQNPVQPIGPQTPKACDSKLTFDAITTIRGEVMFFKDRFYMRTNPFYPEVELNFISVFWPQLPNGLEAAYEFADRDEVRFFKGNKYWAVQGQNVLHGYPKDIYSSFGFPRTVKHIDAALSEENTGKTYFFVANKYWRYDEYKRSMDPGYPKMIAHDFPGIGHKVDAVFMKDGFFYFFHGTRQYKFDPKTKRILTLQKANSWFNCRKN
Kind of assay: Collagenase inhibitor assay (degradation of 3H-acetylated rat skin type I collagen). The format is biochemical. The settings on record: collagenase purified from WI-38 culture supernatants; 3H-acetylated rat skin type I collagen substrate; 5 min pre-incubation, 37° C. overnight; β-mercaptoethanol may be incorporated; read-out: IC50 (50% inhibitory concentration), inhibition of human lung fibroblast collagenase. The protocol: The test is performed essentially as in Cawston and Barrett, Anal. Biochem. 99, 340-345 (1979). Compounds for testing are dissolved in methanol by sonication and added to collagenase (purified from culture supernatants from the human lung fibroblast cell line, WI-38) in buffer. To ensure that thiol collagenase inhibitors remain unoxidised, β-mercaptoethanol may be incorporated in the methanol solvent and/or the diluent buffers to give a final concentration of 9.6×10-^5 M. The minimal direct effect of β-mercaptoethanol on the degradation of collagen by human collagenase is controlled for. After a 5 min pre-incubation at 37° C., the assay tubes are cooled to 4° C. and ^3 H-acetylated rat skin type I collagen is added. The assay tubes are incubated at 37° C. overnight. The ^3 H-collagen forms insoluble fibrils, which are the substrate for the enzyme.
To terminate the assay, the assay tubes are spun at 12000 rpm for 15 min. Undigested ^3 H-collagen is pelleted, while digested ^3 H-collagen is found as soluble peptides in the supernatant. A sample of the supernatant is taken for liquid scintillation counting.
The activity of collagenase inhibitors (IC50 :50% inhibitory concentration) is expressed as that concentration of compound that inhibits a known (standard) concentration of enzyme by 50%.
In the case of `CC(C)CC(C(=O)NC1CCCCCCCCCCNC1=O)C(S)CC(=O)O` (single isomer, unassigned) [Example E3A, 3-Mercapto-6-methyl-4-[(2-oxoazacyclotridec-3-yl)aminocarbonyl]heptanoic acid], the IC50 came out at 74.5 nM.

Take `COC(=O)CC(S)C(CC(C)C)C(=O)NC1CCCCCCCCCCNC1=O` (single isomer, unassigned) [Example E2A, 3-mercapto-6-methyl-4-[(2-oxoazacyclotridec-3-yl)aminocarbonyl]heptanoic acid, methyl ester]: the IC50 came out at 2.7 nM.

`CC(C)CC(C(=O)NC1CCCCCCCCCCNC1=O)C(S)CC(=O)OC(C)C` (stereo not drawn) [Example E4A]: the IC50 is 15 nM.

Source of the values: patent US5190937A, “Lactam derivatives” (Beecham Group p.l.c., priority 1990, dated 1993).
